Laboratory results as given in patent publication US20100197797A1 (priority 2009, published 2010).

How the values were obtained:
[1] = tested on: patients; experiment: Spontaneous / postmarketing reports; format: in vivo, human; settings: post-marketing, multiple drugs but also milnacipran hydrochloride only
Description: However, because these adverse reactions were reported voluntarily from a population of uncertain size, it is not always possible to reliably estimate their frequency or establish a causal relationship to drug exposure.

[2] = tested on: humans; experiment: Acute overdose in clinical trials; format: in vivo, human; settings: up to 1000 mg, alone or in combination with other drugs
Description: There is limited clinical experience with milnacipran hydrochloride overdose in humans.

[3] = Human pharmacokinetics; settings: in vivo
Experimental: The pharmacokinetic parameters described herein include area under the plasma concentration-time curve (AUC0-t and AUC0-∞), maximum plasma concentration (Cmax), time of maximum plasma concentration (Tmax) and terminal elimination half-life (T1/2). The time of maximum concentration, Tmax, is determined as the time corresponding to Cmax. Area under the plasma concentration-time curve up to the time corresponding to the last measurable concentration (AUC0-t) is calculated by numerical integration using the linear trapezoidal rule as follows: […]

[4] = tested on: plasma proteins; experiment: Plasma protein binding; format: in vitro ADME
[5] = tested on: fibromyalgia; experiment: Study 2, 3-month fibromyalgia efficacy study; format: in vivo, human
Description: (§1) Enrolled patients met the American College of Rheumatology (ACR) criteria for fibromyalgia (a history of widespread pain for 3 months and pain present at 11 or more of the 18 specific tender point sites). […] Study 1 was six months in duration and Study 2 was three months in duration.
Patients were enrolled with a minimum mean baseline pain score of ≧40 mm on a 100-mm VAS ranging from 0 (“no pain”) to 100 (“worst possible pain”). The mean baseline pain score in this trial was 65.

[6] = tested on: fibromyalgia; experiment: Study 1, 6-month fibromyalgia efficacy study; format: in vivo, human
Description: as §1
Patients were enrolled with a minimum mean baseline pain score of ≧50 mm on a 100 mm visual analog scale (VAS) ranging from 0 (“no pain”) to 100 (“worst possible pain”). The mean baseline pain score in this trial was 69.

[7] = 100 mg and 200 mg daily, 3-month time point

## CCN(CC)C(=O)C1(c2ccccc2)CC1CN.Cl (racemic) [milnacipran hydrochloride, (±)-[1R(S),2S(R)]-2-(aminomethyl)-N,N-diethyl-1-phenylcyclopropanecarboxamide hydrochloride]
[1]
  outcome of acute overdoses: fatal outcomes have been reported
[2]
  outcome of acute ingestions: none being fatal
[3]
  effect of food on absorption: not affected by food
[4]
  plasma protein binding: 13%
[5]; [7]
  patients with at least 30% reduction in pain from baseline (VAS) and globally improved (PGIC) vs placebo: More patients
[5]; in vivo
  benefit of 200 mg/day vs 100 mg/day: did not confer greater benefit
[6]; [7]
  patients with at least 30% reduction in pain from baseline (VAS) and globally improved (PGIC) vs placebo: More patients
[6]; Studies 1 and 2
  proportion meeting composite response criteria: pain (VAS), physical function (SF-36 PCS), patient global assessment (PGIC), vs placebo: larger proportion
  proportion with simultaneous pain reduction of at least 30% (VAS) and PGIC much or very much improved, vs placebo: larger proportion
[6]; both studies, some patients globally much or very much improved, stable dose
  onset of decrease in pain: as early as week 1
[6]; in vivo
  benefit of 200 mg/day vs 100 mg/day: did not confer greater benefit
